In patent US6355799B1, “Substituted benzene compounds, process for their preparation, and herbicidal and defoliant compositions containing them” (ISK Americas Incorporated, priority 1997, dated 2002):

Columns and labels:
Assay type in all cases: in vivo
[1] = tested on: lambsquarters (Chenopodium album, CHEAL); assay: Pre-emerge test, greenhouse herbicide activity screening; settings: pre-emerge, 14 days after application, scale 0-100
Procedure, shortened: (§1)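 Fourteen days after spraying, crop and weed injury was graded visually from 0, no effect, to 100, every plant dead. Test substances were dissolved in acetone and applied at 15–1000 g ai/ha with a flat-fan nozzle. Application was either pre-emergence, one day after sowing, or post-emergence at the 2–3 leaf stage.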

[2] = tested on: ivyleaf morningglory (Ipomoea hederacea, IPOHE); assay: as above; settings: pre-emerge, 14 days after application, scale 0-100
Procedure, shortened: as §1

[3] = tested on: johnsongrass (Sorghum halepense, SORHA); assay: as above; settings: pre-emerge, 14 days after application, scale 0-100
Procedure, shortened: as §1

[4] = tested on: large crabgrass (Digitaria sanguinalis, DIGSA); assay: as above; settings: pre-emerge, 14 days after application, scale 0-100
Procedure, shortened: as §1

[5] = tested on: barnyardgrass (Echinochloa crus-galli, ECHCG); assay: as above; settings: pre-emerge, 14 days after application, scale 0-100
Procedure, shortened: as §1

[6] = tested on: sicklepod (Cassia obtusifolia, CASOB); assay: as above; settings: pre-emerge, 14 days after application, scale 0-100
Procedure, shortened: as §1

[7] = tested on: velvetleaf (Abutilon theophrasti, ABUTH); assay: as above; settings: pre-emerge, 14 days after application, scale 0-100
Procedure, shortened: as §1

[8] = tested on: green foxtail (Setaria viridis, SETVI); assay: as above; settings: pre-emerge, 14 days after application, scale 0-100
Procedure, shortened: as §1

[9] = tested on: upland rice (Oryza sp., var. Tebonnet, RICE); assay: Pre-emerge test, crop safety; settings: pre-emerge, 14 days after application, scale 0-100
Procedure, shortened: (§2)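 Compounds in acetone were track-sprayed at 15-1000 g ai/ha (187 l/ha) on sandy loam pots: pre-emerge one day after seeding, post-emerge at 2-3 leaf stage with 0.25% v/v non-ionic surfactant. Phytotoxicity was rated 14 days later on a 0 (no damage) to 100 (complete death) scale.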

[10] = tested on: field corn (Zea mays L., var. Dekalb 535, CORN); assay: Pre-emerge test, crop safety; settings: pre-emerge, 14 days after application, scale 0-100
Procedure, shortened: as §2

[11] = tested on: redroot pigweed (Amaranthus retroflexus, AMARE); assay: Pre-emerge test, greenhouse herbicide activity screening; settings: pre-emerge, 14 days after application, scale 0-100
Procedure, shortened: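 Visual ratings on a 0-100 scale (0 no damage, 100 all plants dead) were taken at 14 days after treatment. Rates of 15-1000 g ai/ha in acetone, 187 l/ha, were sprayed onto soil one day after planting (pre-emerge) or onto 2-3 leaf plants with 0.25% v/v surfactant (post-emerge).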

[12] = tested on: upland rice (Oryza sp., var. Tebonnet, RICE); assay: Post-emerge test, crop safety; settings: post-emerge, 14 days after application, rating scale 0-100
Procedure, shortened: as §1

[13] = tested on: field corn (Zea mays L., var. Dekalb 535, CORN); assay: Post-emerge test, crop safety; settings: post-emerge, 14 days after application, rating scale 0-100
Procedure, shortened: as §1

[14] = tested on: redroot pigweed (Amaranthus retroflexus, AMARE); assay: Post-emerge test, greenhouse herbicide activity screening; settings: post-emerge, 14 days after application, rating scale 0-100
Procedure, shortened: (§3)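 Each test used a mechanized track sprayer delivering 187 l/ha of acetone solution at 15–1000 g ai/ha. Post-emerge foliage at 2–3 leaves was treated with added 0.25% v/v non-ionic surfactant and bottom-watered only. Injury was assessed on day 14, where 100 means total kill.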

[15] = tested on: lambsquarters (Chenopodium album, CHEAL); assay: as above; settings: post-emerge, 14 days after application, rating scale 0-100
Procedure, shortened: as §3

[16] = tested on: ivyleaf morningglory (Ipomoea hederacea, IPOHE); assay: as above; settings: post-emerge, 14 days after application, rating scale 0-100
Procedure, shortened: as §3

[17] = tested on: johnsongrass (Sorghum halepense, SORHA); assay: as above; settings: post-emerge, 14 days after application, rating scale 0-100
Procedure, shortened: as §3

[18] = tested on: large crabgrass (Digitaria sanguinalis, DIGSA); assay: as above; settings: post-emerge, 14 days after application, rating scale 0-100
Procedure, shortened: as §3

[19] = tested on: barnyardgrass (Echinochloa crus-galli, ECHCG); assay: as above; settings: post-emerge, 14 days after application, rating scale 0-100
Procedure, shortened: as §3

[20] = tested on: common ragweed (Ambrosia artemisizfolia L., AMBEL); assay: as above; settings: post-emerge, 14 days after application, rating scale 0-100
Procedure, shortened: as §3

[21] = tested on: sicklepod (Cassia obtusifolia, CASOB); assay: as above; settings: post-emerge, 14 days after application, rating scale 0-100
Procedure, shortened: as §3

[22] = tested on: velvetleaf (Abutilon theophrasti, ABUTH); assay: as above; settings: post-emerge, 14 days after application, rating scale 0-100
Procedure, shortened: as §3

[23] = tested on: green foxtail (Setaria viridis, SETVI); assay: as above; settings: post-emerge, 14 days after application, rating scale 0-100
Procedure, shortened: as §3

COc1c(Cl)cc(F)c(-n2c(=O)cc(C(F)(F)F)n(C)c2=O)c1NC(=O)CSC(C)C [2-173]
70: phytotoxicity rating CASOB ([6]; 250 g ai/ha) | CASOB phytotoxicity rating ([21]; 250 g ai/ha)
65: CHEAL phytotoxicity rating ([15]; 250 g ai/ha)
10: phytotoxicity rating SORHA ([3]; 250 g ai/ha) | RICE phytotoxicity rating (crop damage) ([12]; 250 g ai/ha)
80: phytotoxicity rating DIGSA ([4]; 250 g ai/ha) | phytotoxicity rating SETVI ([8]; 250 g ai/ha) | IPOHE phytotoxicity rating ([16]; 250 g ai/ha)
50: phytotoxicity rating RICE (crop damage) ([9]; 250 g ai/ha) | AMARE phytotoxicity rating ([14]; 63 g ai/ha) | AMARE phytotoxicity rating ([14]; 250 g ai/ha) | AMBEL phytotoxicity rating ([20]; 250 g ai/ha) | CASOB phytotoxicity rating ([21]; 63 g ai/ha)
25: CORN phytotoxicity rating (crop damage) ([13]; 250 g ai/ha)
0: phytotoxicity rating IPOHE ([2]; 63 g ai/ha) | phytotoxicity rating SORHA ([3]; 63 g ai/ha) | phytotoxicity rating ECHCG ([5]; 63 g ai/ha) | phytotoxicity rating RICE (crop damage) ([9]; 63 g ai/ha) | phytotoxicity rating CORN (crop damage) ([10]; 63 g ai/ha) | RICE phytotoxicity rating (crop damage) ([12]; 63 g ai/ha) | CORN phytotoxicity rating (crop damage) ([13]; 63 g ai/ha) | SORHA phytotoxicity rating ([17]; 63 g ai/ha) | SORHA phytotoxicity rating ([17]; 250 g ai/ha) | DIGSA phytotoxicity rating ([18]; 63 g ai/ha) | DIGSA phytotoxicity rating ([18]; 250 g ai/ha) | ECHCG phytotoxicity rating ([19]; 63 g ai/ha) | ECHCG phytotoxicity rating ([19]; 250 g ai/ha) | SETVI phytotoxicity rating ([23]; 63 g ai/ha) | SETVI phytotoxicity rating ([23]; 250 g ai/ha)
20: phytotoxicity rating ECHCG ([5]; 250 g ai/ha) | phytotoxicity rating CORN (crop damage) ([10]; 250 g ai/ha)
40: phytotoxicity rating IPOHE ([2]; 250 g ai/ha) | phytotoxicity rating SETVI ([8]; 63 g ai/ha) | CHEAL phytotoxicity rating ([15]; 63 g ai/ha)
60: ABUTH phytotoxicity rating ([22]; 63 g ai/ha)
90: phytotoxicity rating CHEAL ([1]; 63 g ai/ha)
30: phytotoxicity rating DIGSA ([4]; 63 g ai/ha) | phytotoxicity rating CASOB ([6]; 63 g ai/ha) | phytotoxicity rating AMARE ([11]; 63 g ai/ha) | AMBEL phytotoxicity rating ([20]; 63 g ai/ha)
100: phytotoxicity rating CHEAL ([1]; 250 g ai/ha) | phytotoxicity rating ABUTH ([7]; 250 g ai/ha) | phytotoxicity rating AMARE ([11]; 250 g ai/ha) | IPOHE phytotoxicity rating ([16]; 63 g ai/ha) | ABUTH phytotoxicity rating ([22]; 250 g ai/ha)
95: phytotoxicity rating ABUTH ([7]; 63 g ai/ha)
